No end group written: not given here. *: point of attachment. 5FAM = O=C1OC2(c3ccc(O)cc3Oc3cc(O)ccc32)c2ccc(C(=O)*)cc21
How the values were obtained:
[1] = system: serum antibodies to equine infectious anemia virus; assay: Fluorescence polarization (FP) assay of fluorescein-labeled peptides with diluted horse serum; assay type: binding; conditions: for FP interaction with EIAV-positive sera: EIAV-positive sera incl. R51 FP-nonreactive samples; for FP reactivity with experimentally infected serum: Pony 95 serum; for FP signal of R51 with positive sera: approx. 2 nM peptide, 1:100 serum, 50 mM sodium phosphate pH 6.8, 20 min, 5CF vs 6CF label
Procedure: Several different buffer compositions and detergents were therefore tested for compatibility with horse serum. When horse serum was diluted 1:50 or 1:100 into 20-50 mM sodium phosphate without NaCl, this problem was virtually eliminated. […] Under the low-salt conditions, the polarization of peptide R51-5CF increased from 50 mP to over 200 mP with a 1:100 dilution of a strong positive EIAV antiserum from an experimental infection (Pony 95). Thus it was determined that the optimal buffer composition for the FP assay was 50 mM sodium phosphate, pH 6.8-7.0.
(§1) Fluorescence Polarization (FP) Measurements. The fluorescein-labeled peptides were evaluated for their suitability as probes for FP using an FPM-1 Fluorescence Polarization Analyzer (Jolley Consulting and Research, Grayslake, Ill.) batch mode with the following settings: PMT gain 80, heater off, single read. Serum was diluted 1:100 or 1:50 into 2 mL of buffer in 12×75 mm borosilicate glass tubes (VWR). After reading the blank, fluorescently labeled peptide was added to a final concentration of 1-2 nM (100K-200K total intensity) and incubated for at least 15 minutes. The FP of the sample was measured and expressed as millipolarization units (mP). Some of the sera were very dark, presumably due to hemolysis. If such a serum sample had low lamp feedback (<0.63), a two-fold further dilution was tested. Polarization data was output to a computer running the FPM-1 data collection software, then converted to an ASCII text file and imported into the Quattro Pro spreadsheet program (Corel, Ottawa, Ontario) for data analysis and graphing.
Because different fluorescein linkages can result in differences in sensitivity in the FP assay, R51 peptide was labeled with 6-carboxyfluorescein so the difference between the two labels could be ascertained. […] Peptides (approx. 2 nM) were incubated with a 1:100 dilution of serum in 50 mM sodium phosphate, pH 6.8, for 20 minutes. The results are shown in FIG. 2, in order of decreasing peptide length. In FIG. 2, black bars show the results for experimentally-infected (pony 95), hatched bars for field infected ([…]), gray bars for uninfected (Petite), and white bars for no serum added. […] As the R51-6CF probe was the most sensitive to the positive sera tested, 6-carboxyfluorescein is the preferred fluorophore. However, other fluorophores, such as rhodamine, BODIPY™ M, Texas Red™ and Lucifer yellow, could also be used. For a detailed listing of a variety of commercially available fluorophores, see Handbook of Fluorescent Probes and Research Chemicals, ed. Karen Larison, by Richard P. Haughland, Ph.D., 5th ed., 1992, published by Molecular Probes, Inc.

[2] = Behaviour of the R51 probe in solution (cyclization, dilution); assay type: physicochemical
Procedure: Because R51 contains two Cys residues that may form a loop in the native protein, the differences in reactivity were assessed between linear or cyclized peptide (cyclic by virtue of an intramolecular disulfide bond).

[3] = system: anti-EIAV antibodies in horse sera; assay: Anti-fluorescein capture ELISA; assay type: binding; conditions: for ELISA reactivity with FP-nonreactive sera: sera 1:50, FP-nonreactors from Texas; for ELISA reactivity: Pony 95 and Lady sera; for reactivity in the anti-fluorescein ELISA: general statement of Example 3
Procedure: Anti-Fluorescein Capture ELISA. In order to measure antibody binding to test peptides without regard to their suitability for FP, an anti-fluorescein capture ELISA was used. To each well of an Immulon 2 HB 96-well plate (Dynex, Chantilly, Va.) was added 50 μL rabbit anti-fluorescein antibody (Molecular Probes), 3.5 μg/ml in 50 mM sodium bicarbonate, pH 9.6; the plates were sealed and incubated overnight. The wells were blocked with Blotto (5% nonfat dry milk, 5% normal bovine serum, 0.025% Tween 20 in PBS (PBST). The plates were then incubated with test horse sera, diluted 1:100 in Blotto, for 1 h at RT, washed as above, then incubated with anti-horse IgG(Fc)-HRP (United States Biochemical), diluted 1:10^5 in Blotto, for 1 h at RT and washed. The substrate, TM Blue Soluble reagent (200 μL/well; Intergen, Milford, Mass.) was added and incubated for 20 minutes with shaking, and the reaction stopped with the addition of 50 μL/well 1.0 N H2SO4 for 5 minutes with shaking. Absorbance at 450 nm was measured on a Dynex MR5000 microplate reader. Because each peptide caused a slightly different background absorbance, control wells containing no horse serum were included for each peptide tested.
Some of the sera from Missouri (4/10) could not be tested due to interference from a high level of hemolysis, resulting in low lamp feedback values. […] In order to confirm the serological status of FP-unreactive sera, they were tested in a western blot (data not shown) as well as in the antifluorescein-capture ELISA using the seven original peptides derived from the three major antigens mentioned above (FIG. 5). Sera (1:50 dilution) were tested for reactivity to four EIAV-derived, fluorescein-labeled peptides in an ELISA format as described in the methods. NHS, normal (uninfected) horse serum; Tx43 through Txll7, FP-nonreactive, Tx47 through pony 95, FP-reactive sera. Black bars, peptide R51F; hatched bars, R32; gray bars, pepl2; white bars, Sam50.

anti-EIAV IgG = assay: Fluorescence polarization of probe peptides with purified IgG from field-infected horse (Lady); assay type: binding; conditions: for change in FP with purified antibodies from field-infected animal: Lady IgG
Procedure: Due to problems encountered with testing horse serum, the initial evaluation made use of purified IgG from a reference long-term, field-infected horse (Lady). Purified IgG from field infected horse serum (100 μg/ml) was incubated with the candidate probe peptides (2 nM) in PBS for 20 min. The results are shown in FIG. 1, wherein black bars indicate probe added to IgG and gray bars indicate probe in buffer alone. All peptides were the 5-carboxyfluorescein derivatives. […] The other peptides in the panel had only slight changes in polarization in the presence of Lady IgG.
as §1

ADDWDNRHPLPNAPLVAPPQGPIPMT (Equine infectious anemia virus) [Sam50]
FP interaction with EIAV-positive sera [1]: insensitive to EIAV-positive sera

APLVAPPQGPIPMT (Equine infectious anemia virus) [Sam50A]
FP interaction with EIAV-positive sera [1]: none of these analogs displayed a measurable interaction

HPLPNAPLVAPPQGPIPMT (Equine infectious anemia virus) [Sam50H]
FP interaction with EIAV-positive sera [1]: none of these analogs displayed a measurable interaction

IGCIERTHVFCHTG (Equine infectious anemia virus) [R51]
precipitation of probe ([2]; conditions that allow cyclization): prone to precipitation
stability of peptide ([2]; upon dilution): stable upon dilution
ELISA reactivity with FP-nonreactive sera [3]: no measurable antibody
sensitivity of cyclized vs linear peptide ([1]; cyclic by intramolecular disulfide bond, field isolates): more sensitive to field isolates than the linear form

KERQQVEETFNLI (Equine infectious anemia virus) [R32]
change in FP with purified antibodies from field-infected animal (anti-EIAV IgG): did not exhibit an increase in FP
ELISA reactivity [3]: reacted very strongly
reactivity in the anti-fluorescein ELISA [3]: strong and broad reactivity
ELISA reactivity with FP-nonreactive sera [3]: no measurable antibody
FP reactivity with experimentally infected serum [1]: some reactivity

LETWKLVKTSGVTPLPISSEANTGL (Equine infectious anemia virus) [Peptide 12]
change in FP with purified antibodies from field-infected animal (anti-EIAV IgG): did not exhibit an increase in FP
ELISA reactivity [3]: reacted very strongly
reactivity in the anti-fluorescein ELISA [3]: strong and broad reactivity
ELISA reactivity with FP-nonreactive sera [3]: bind only weakly
FP reactivity with experimentally infected serum [1]: some reactivity

QQVEETFNLI (Equine infectious anemia virus) [R32QQ]
maximum FP ([1]; 1:100 dilution of pony 95, R32 length series, fluorescein-6-isothiocyanate label): > 200 mP
FP reactivity with experimentally infected serum [1]: most sensitive peptide

R51-5CF: R51 peptide labeled at the N-terminus with 5-carboxyfluorescein (5FAM-IGCIERTHVFCHTG; cysteine pairing not given here)
free-peptide polarization level (anti-EIAV IgG; probe 2 nM in PBS buffer alone, 5-carboxyfluorescein derivative): about 60 mP
FP in the presence of Lady IgG (anti-EIAV IgG; probe 2 nM, 60-100 μg/ml Lady IgG in PBS, 20 min): around 140 MP
FP signal of R51 with positive sera [1]: 220 mP
FP reactivity with field-infected horse serum ([1]; field infected horses (Lady)): sensitive to serum from field infected horses
polarization with strong positive EIAV antiserum ([1]; low-salt conditions, 1:100 dilution, experimental infection (Pony 95)): over 200 mP
polarization of peptide before serum ([1]; low-salt conditions, starting value): 50 mP

R51-6CF: R51 peptide (SEQ ID NO 1) labeled with 6-carboxyfluorescein (IGCIERTHVFCHTG; cysteine pairing not given here; also: 6-carboxyfluorescein label, position not given here)
polarization values of negative serum samples ([1]; 110 AGID-negative sera, 1:100 dilution): 73.6±3.0 mP
FP signal of R51 with positive sera [1]: > 300 mP
average mP value with field-infected sera ([1]; measurable sera of 153 field-infected animals, 1:100 dilution, ~2 nM peptide): 150±55 mP

From patent US20020025512A1, “FLUORESCENCE POLARIZATION- BASED DIAGNOSTIC ASSAY FOR EQUINE INFECTIOUS ANEMIA VIRUS” (priority 1998, published 2002)
